Source: ChEMBL document CHEMBL1137067, “Alpha-1-C-alkyl-1-deoxynojirimycin derivatives as potent and selective inhibitors of intestinal isomaltase: remarkable effect of the alkyl chain length on glycosidase inhibitory profile” (Bioorg Med Chem Lett, 2004)

Experiments:
[1] = target: T1, Alpha-glucosidase (Oryza sativa Japonica Group, UniProt Q9LGC6); test: Inhibitory activity against alpha-Glucosidase from rice
T1 sequence (Q9LGC6 whole entry): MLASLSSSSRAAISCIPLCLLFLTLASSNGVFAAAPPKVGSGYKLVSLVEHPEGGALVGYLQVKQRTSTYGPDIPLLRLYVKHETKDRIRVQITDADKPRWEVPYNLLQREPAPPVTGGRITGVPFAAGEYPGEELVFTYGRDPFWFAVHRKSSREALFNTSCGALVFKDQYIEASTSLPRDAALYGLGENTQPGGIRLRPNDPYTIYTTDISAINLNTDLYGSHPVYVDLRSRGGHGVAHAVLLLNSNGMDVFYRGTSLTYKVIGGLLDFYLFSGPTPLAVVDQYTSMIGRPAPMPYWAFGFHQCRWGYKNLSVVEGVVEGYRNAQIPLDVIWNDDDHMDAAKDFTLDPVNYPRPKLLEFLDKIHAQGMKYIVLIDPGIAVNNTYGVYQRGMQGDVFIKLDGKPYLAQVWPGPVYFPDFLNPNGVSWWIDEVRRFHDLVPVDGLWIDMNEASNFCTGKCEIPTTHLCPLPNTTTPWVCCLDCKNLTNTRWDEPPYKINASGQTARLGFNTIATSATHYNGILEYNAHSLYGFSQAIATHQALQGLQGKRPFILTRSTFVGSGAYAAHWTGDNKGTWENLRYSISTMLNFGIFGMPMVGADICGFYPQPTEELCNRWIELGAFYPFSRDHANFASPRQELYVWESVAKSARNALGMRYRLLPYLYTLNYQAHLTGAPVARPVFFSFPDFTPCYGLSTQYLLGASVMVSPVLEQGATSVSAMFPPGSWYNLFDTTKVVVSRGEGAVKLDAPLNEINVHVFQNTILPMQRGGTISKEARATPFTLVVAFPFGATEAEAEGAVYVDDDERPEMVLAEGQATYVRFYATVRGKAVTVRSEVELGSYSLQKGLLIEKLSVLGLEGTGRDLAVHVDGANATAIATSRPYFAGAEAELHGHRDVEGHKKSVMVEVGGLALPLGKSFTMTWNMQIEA

[2] = target: T2, Sucrase-isomaltase, intestinal (Rattus norvegicus, UniProt P23739); test: Inhibition of rat intestinal maltase using disaccharide
[3] = target: T2, Sucrase-isomaltase, intestinal; test: Inhibition of rat intestinal sucrase using disaccharide
[4] = system: Saccharomyces cerevisiae; test: Inhibitory activity against alpha-Glucosidase from Yeast at 1000 uM
[5] = target: T2, Sucrase-isomaltase, intestinal; test: Inhibition of rat intestinal isomaltase using disaccharide
[6] = target: Beta-glucosidase A (Caldicellulosiruptor saccharolyticus) (UniProt P10482); test: Inhibitory activity against beta-Glucosidase from Caldocellum saccharolyticum at 1000 uM
[7] = target: Beta-glucosidase A (Caldicellulosiruptor saccharolyticus, UniProt P10482); test: Inhibitory activity against beta-Glucosidase from Caldocellum saccharolyticum
[8] = Inhibitory activity against alpha-Glucosidase from Yeast; design: species or system Saccharomyces cerevisiae

T2 sequence (P23739 1-1013 limits assumed): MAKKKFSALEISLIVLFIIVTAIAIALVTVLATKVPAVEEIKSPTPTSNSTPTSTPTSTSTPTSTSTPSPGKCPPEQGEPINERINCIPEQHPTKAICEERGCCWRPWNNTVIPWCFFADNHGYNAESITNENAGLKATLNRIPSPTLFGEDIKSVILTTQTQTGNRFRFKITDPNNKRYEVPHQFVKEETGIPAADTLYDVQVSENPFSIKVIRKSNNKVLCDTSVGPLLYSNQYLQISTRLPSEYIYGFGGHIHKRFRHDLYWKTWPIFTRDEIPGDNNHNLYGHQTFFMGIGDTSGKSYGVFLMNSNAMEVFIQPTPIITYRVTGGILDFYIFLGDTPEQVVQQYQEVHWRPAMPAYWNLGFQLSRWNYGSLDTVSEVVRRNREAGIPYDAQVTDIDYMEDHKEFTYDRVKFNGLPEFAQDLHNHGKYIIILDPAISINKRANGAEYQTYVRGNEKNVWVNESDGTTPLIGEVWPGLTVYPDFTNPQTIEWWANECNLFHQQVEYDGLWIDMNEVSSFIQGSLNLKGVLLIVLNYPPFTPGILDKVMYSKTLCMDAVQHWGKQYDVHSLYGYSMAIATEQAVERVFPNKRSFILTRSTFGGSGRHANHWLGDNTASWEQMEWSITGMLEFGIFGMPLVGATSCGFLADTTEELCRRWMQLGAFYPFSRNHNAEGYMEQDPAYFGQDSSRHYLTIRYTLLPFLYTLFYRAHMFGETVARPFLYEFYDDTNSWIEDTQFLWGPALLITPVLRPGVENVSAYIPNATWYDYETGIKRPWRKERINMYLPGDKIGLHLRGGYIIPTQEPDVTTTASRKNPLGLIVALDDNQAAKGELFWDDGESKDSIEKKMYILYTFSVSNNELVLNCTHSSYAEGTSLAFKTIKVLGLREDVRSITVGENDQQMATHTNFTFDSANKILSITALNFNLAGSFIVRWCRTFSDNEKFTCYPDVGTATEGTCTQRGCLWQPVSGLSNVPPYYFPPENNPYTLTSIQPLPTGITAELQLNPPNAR
T2 sequence (P23739 1014-1841 limits assumed): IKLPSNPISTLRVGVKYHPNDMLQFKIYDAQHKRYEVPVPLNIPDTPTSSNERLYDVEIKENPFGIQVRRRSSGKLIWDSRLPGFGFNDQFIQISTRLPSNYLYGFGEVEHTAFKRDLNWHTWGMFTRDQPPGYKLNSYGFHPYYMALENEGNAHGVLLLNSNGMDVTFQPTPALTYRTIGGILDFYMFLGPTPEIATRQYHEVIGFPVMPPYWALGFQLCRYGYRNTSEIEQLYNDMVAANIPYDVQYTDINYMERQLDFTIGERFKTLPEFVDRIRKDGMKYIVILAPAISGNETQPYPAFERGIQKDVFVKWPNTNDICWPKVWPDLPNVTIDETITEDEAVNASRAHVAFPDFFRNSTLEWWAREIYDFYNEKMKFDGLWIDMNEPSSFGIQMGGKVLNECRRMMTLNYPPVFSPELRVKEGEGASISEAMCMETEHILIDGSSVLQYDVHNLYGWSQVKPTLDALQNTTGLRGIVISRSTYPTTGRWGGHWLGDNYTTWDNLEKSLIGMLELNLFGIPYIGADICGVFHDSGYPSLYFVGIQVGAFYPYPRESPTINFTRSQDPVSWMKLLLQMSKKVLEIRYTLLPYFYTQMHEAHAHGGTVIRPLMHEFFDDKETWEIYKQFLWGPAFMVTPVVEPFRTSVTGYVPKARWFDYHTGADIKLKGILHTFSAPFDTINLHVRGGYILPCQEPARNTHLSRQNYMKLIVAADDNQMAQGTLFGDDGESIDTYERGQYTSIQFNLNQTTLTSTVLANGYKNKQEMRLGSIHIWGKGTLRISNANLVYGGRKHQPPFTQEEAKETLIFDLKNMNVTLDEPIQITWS
Sequence of Beta-glucosidase A (Caldicellulosiruptor saccharolyticus) (P10482 whole entry): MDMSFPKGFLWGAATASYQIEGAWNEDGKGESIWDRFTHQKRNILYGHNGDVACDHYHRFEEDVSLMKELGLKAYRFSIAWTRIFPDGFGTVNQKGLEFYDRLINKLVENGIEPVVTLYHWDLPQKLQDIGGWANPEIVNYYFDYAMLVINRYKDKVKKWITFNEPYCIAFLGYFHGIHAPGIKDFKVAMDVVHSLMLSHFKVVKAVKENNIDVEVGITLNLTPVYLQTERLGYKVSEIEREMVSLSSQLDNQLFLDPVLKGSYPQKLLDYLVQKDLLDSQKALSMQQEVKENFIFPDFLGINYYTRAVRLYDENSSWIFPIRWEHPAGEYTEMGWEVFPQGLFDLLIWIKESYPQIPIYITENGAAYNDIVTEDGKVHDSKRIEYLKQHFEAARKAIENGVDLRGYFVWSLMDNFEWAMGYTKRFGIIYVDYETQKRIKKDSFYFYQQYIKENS
Sequence of Beta-glucosidase A (P10482 whole entry): as above

SMILES | IC50 [1] | IC50 [2] | IC50 [3] | inhibition [4] | IC50 [5] | inhibition [6] | IC50 [7] | IC50 [8]
CCCC[C@@H]1N[C@@H](CO)[C@@H](O)[C@H](O)[C@@H]1O | 61000 nM | 210000 nM | 155000 nM | < 50% | 115000 nM | < 50% | – | –
CCCCCCCCCN1CC(O)C(O)C(O)C1CO (stereo not given) | 80 nM | 1300 nM | – | < 50% | – | – | – | –
OC[C@H]1NC[C@H](O)[C@@H](O)[C@@H]1O [DUVOGLUSTAT] | – | – | – | – | – | – | – | 190000 nM
CCCN1CC(O)C(O)C(O)C1CO (stereo not given) | 2000 nM | 7000 nM | 2000 nM | < 50% | 1400 nM | – | 100000 nM | –
CCCC[C@H]1N[C@@H](CO)[C@@H](O)[C@H](O)[C@@H]1O | 11000 nM | 12000 nM | 3600 nM | – | 150 nM | < 50% | – | 465000 nM
CCCC1NC(CO)C(O)C(O)C1O (stereo not given) | 15000 nM | 43000 nM | 39000 nM | – | 530 nM | – | – | 630000 nM

Continued by falling IC50 [1], values first:

IC50 [1] | IC50 [2] | IC50 [3] | inhibition [4] | IC50 [5] | inhibition [6] | IC50 [7] | IC50 [8] | SMILES
1500 nM | 4000 nM | 2500 nM | – | 3.5 nM | – | 80000 nM | 56000 nM | CCCCCCCCCC1NC(CO)C(O)C(O)C1O (stereo not given)
800 nM | 3500 nM | 1200 nM | – | 310 nM | < 50% | – | 52000 nM | CCCCCCC1NC(CO)C(O)C(O)C1O (stereo not given)
700 nM | 3700 nM | 450 nM | < 50% | 450 nM | – | 450000 nM | – | CCCCCCN1CC(O)C(O)C(O)C1CO (stereo not given)
590 nM | 1900 nM | 1500 nM | – | 90 nM | – | 110000 nM | 25000 nM | CCCCCCCCC1NC(CO)C(O)C(O)C1O (stereo not given)
420 nM | – | – | < 50% | – | < 50% | – | – | CCCCN1C[C@H](O)[C@@H](O)[C@H](O)[C@H]1CO
80 nM | 1500 nM | 660 nM | < 50% | 280 nM | – | 160000 nM | – | CCCCCCCCN1CC(O)C(O)C(O)C1CO (stereo not given)
